# According to patent US9132140B2, “Boronic acid derivatives and therapeutic uses thereof” (Rempex Pharmaceuticals, Inc., priority 2013, dated 2015):
# Columns and labels:
# [1] = tested on: ECLM1014 (NDM, KPC); assay type: cell-based, Enterobacter cloacae
# Source text: (§1) Several strains simultaneously expressing both class A and class B carbapenemases, which were constructed using conjugation, were also included in the panel.
# [2] = tested on: ECLM1013 (NDM, KPC); assay type: cell-based, Enterobacter cloacae
# Source text: as §1
# [3] = tested on: ECLM1018 (VIM, KPC); assay type: cell-based, Enterobacter cloacae
# Source text: as §1
# [4] = tested on: ECL1082 (VIM-1); assay type: cell-based, Enterobacter cloacae
# Source text: as §1
# [5] = tested on: ECL1057 (NDM-1, TEM-1, CTX-M-15); assay type: cell-based, Enterobacter cloacae
# Source text: as §1
# [6] = tested on: ECLM1015 (NDM, KPC); assay type: cell-based, Enterobacter cloacae
# Source text: as §1
# [7] = tested on: ECLM1017 (VIM, KPC); assay type: cell-based, Enterobacter cloacae
# Source text: as §1
# [8] = tested on: ECL1055 (KPC); assay type: cell-based, Enterobacter cloacae
# Source text: as §1
# [9] = tested on: ECLM1016 (NDM, KPC); assay type: cell-based, Enterobacter cloacae
# Source text: as §1
# [10] = tested on: ECLM1019 (VIM, KPC); assay type: cell-based, Enterobacter cloacae
# Source text: as §1
# [11] = tested on: ECL1026 (KPC); assay type: cell-based, Enterobacter cloacae
# Source text: as §1
# [12] = tested on: ECL1036 (KPC); assay type: cell-based, Enterobacter cloacae
# Source text: as §1
# [13] = tested on: ECL1045 (VIM-1); assay type: cell-based, Enterobacter cloacae
# Source text: as §1
# [14] = tested on: EC1064 (NDM-1, CMY-6, CTX-M-15); assay type: cell-based, Escherichia coli
# Source text: as §1
# [15] = tested on: EC1068 (VIM-1); assay type: cell-based, Escherichia coli
# Source text: as §1
# [16] = tested on: EC1065 (IMP-1 CMY-2); assay type: cell-based, Escherichia coli
# Source text: as §1
# [17] = tested on: EC1061 (NDM-1, CMY-6); assay type: cell-based, Escherichia coli
# Source text: as §1
# [18] = tested on: ECM6703 (pUCP24-NDM-1); test: microbe, parasite or virus in culture; assay type: cell-based, E. coli; settings: Escherichia coli, read-out: Imipenem MIC Alone
# [19] = tested on: KPM1099 (NDM, KPC); assay type: cell-based, Klebsiella pneumoniae
# Source text: as §1
# [20] = tested on: KPM1097 (NDM, KPC); assay type: cell-based, Klebsiella pneumoniae
# Source text: as §1
# [21] = tested on: KP1059 (VIM-1, SHV-11); assay type: cell-based, Klebsiella pneumoniae
# Source text: as §1
# [22] = tested on: KP1004 (KPC TEM SHV); assay type: cell-based, Klebsiella pneumoniae
# Source text: as §1
# [23] = tested on: KP1084 (KPC-3, SHV-11, TEM-1); assay type: cell-based, Klebsiella pneumoniae
# Source text: as §1
smiles,measurement,setting,value
"C[C@@H](O)[C@H]1C(=O)N2C(C(=O)O)=C(SCCN=CN)C[C@H]12 [Imipenem, reference compound]",Carbapenem MIC alone,[1],Y (key: X: MIC of less than 1 μg/mL; Y: MIC of 1 μg/mL to 10 μg/mL; Z: MIC of greater than 10 μg/mL)
same,Carbapenem MIC alone,[2],Z (key: X: MIC of less than 1 μg/mL; Y: MIC of 1 μg/mL to 10 μg/mL; Z: MIC of greater than 10 μg/mL)
same,Carbapenem MIC alone,[3],Z (key: X: MIC of less than 1 μg/mL; Y: MIC of 1 μg/mL to 10 μg/mL; Z: MIC of greater than 10 μg/mL)
same,Carbapenem MIC alone,[4],Z (key: X: MIC of less than 1 μg/mL; Y: MIC of 1 μg/mL to 10 μg/mL; Z: MIC of greater than 10 μg/mL)
same,Carbapenem MIC alone,[5],Z (key: X: MIC of less than 1 μg/mL; Y: MIC of 1 μg/mL to 10 μg/mL; Z: MIC of greater than 10 μg/mL)
same,Carbapenem MIC alone,[6],Z (key: X: MIC of less than 1 μg/mL; Y: MIC of 1 μg/mL to 10 μg/mL; Z: MIC of greater than 10 μg/mL)
same,Carbapenem MIC alone,[7],Z (key: X: MIC of less than 1 μg/mL; Y: MIC of 1 μg/mL to 10 μg/mL; Z: MIC of greater than 10 μg/mL)
same,Carbapenem MIC alone,[8],Y (key: X: MIC of less than 1 μg/mL; Y: MIC of 1 μg/mL to 10 μg/mL; Z: MIC of greater than 10 μg/mL)
same,Carbapenem MIC alone,[9],Z (key: X: MIC of less than 1 μg/mL; Y: MIC of 1 μg/mL to 10 μg/mL; Z: MIC of greater than 10 μg/mL)
same,Carbapenem MIC alone,[10],Z (key: X: MIC of less than 1 μg/mL; Y: MIC of 1 μg/mL to 10 μg/mL; Z: MIC of greater than 10 μg/mL)
same,Carbapenem MIC alone,[11],Y (key: X: MIC of less than 1 μg/mL; Y: MIC of 1 μg/mL to 10 μg/mL; Z: MIC of greater than 10 μg/mL)
same,Carbapenem MIC alone,[12],Y (key: X: MIC of less than 1 μg/mL; Y: MIC of 1 μg/mL to 10 μg/mL; Z: MIC of greater than 10 μg/mL)
same,Carbapenem MIC alone,[13],Y (key: X: MIC of less than 1 μg/mL; Y: MIC of 1 μg/mL to 10 μg/mL; Z: MIC of greater than 10 μg/mL)
same,Carbapenem MIC alone,[14],Z (key: X: MIC of less than 1 μg/mL; Y: MIC of 1 μg/mL to 10 μg/mL; Z: MIC of greater than 10 μg/mL)
same,Carbapenem MIC alone,[15],Y (key: X: MIC of less than 1 μg/mL; Y: MIC of 1 μg/mL to 10 μg/mL; Z: MIC of greater than 10 μg/mL)
same,Carbapenem MIC alone,[16],Y (key: X: MIC of less than 1 μg/mL; Y: MIC of 1 μg/mL to 10 μg/mL; Z: MIC of greater than 10 μg/mL)
same,Carbapenem MIC alone,[17],Y (key: X: MIC of less than 1 μg/mL; Y: MIC of 1 μg/mL to 10 μg/mL; Z: MIC of greater than 10 μg/mL)
same,MIC,[18],> 1 µg/mL
same,Carbapenem MIC alone,[19],Z (key: X: MIC of less than 1 μg/mL; Y: MIC of 1 μg/mL to 10 μg/mL; Z: MIC of greater than 10 μg/mL)
same,Carbapenem MIC alone,[20],Z (key: X: MIC of less than 1 μg/mL; Y: MIC of 1 μg/mL to 10 μg/mL; Z: MIC of greater than 10 μg/mL)
same,Carbapenem MIC alone,[21],Z (key: X: MIC of less than 1 μg/mL; Y: MIC of 1 μg/mL to 10 μg/mL; Z: MIC of greater than 10 μg/mL)
same,Carbapenem MIC alone,[22],Z (key: X: MIC of less than 1 μg/mL; Y: MIC of 1 μg/mL to 10 μg/mL; Z: MIC of greater than 10 μg/mL)
same,Carbapenem MIC alone,[23],Z (key: X: MIC of less than 1 μg/mL; Y: MIC of 1 μg/mL to 10 μg/mL; Z: MIC of greater than 10 μg/mL)
